Experiments:
Experiment in all cases: Effect on signaling pathway downstream of CDK9
Format in all cases: cell-based
[1] = tested on: phosphorylation of RNAPII, MCL-1, and c-MYC in MV4-11; details: MV4-11, 0.03-3 μM, 2 hours
Description: (§1) Against four cells, acute myelocytic leukemia cell line (AML) OCI-AML-3, acute promyelocytic leukemia cell line NB-4, acute myelocytic leukemia cell line (AML) HL-60 and acute myelocytic leukemia cell line (AML) MV4-11 (all purchased from ATCC), by measuring the biochemical endpoints and functional endpoints of multiple cells, the effect of compound 1 was evaluated on CDK9 in cells and other protein kinases related to its signaling pathway, such as RNAPII, XIAP, MCL-1, c-MYC, BCL-2 and so on. […] The effect of Compound 1 on the phosphorylation of CDK9, RNAPII, XIAP, MCL-1, c-MYC, BCL-2 in these cell lines was determined (FIG. 1a-d).

[2] = tested on: phosphorylation of RNAPII, MCL-1, and c-MYC in NB-4; details: NB-4, 0.03-3 μM, 2 hours
Description: as §1

[3] = tested on: phosphorylation of RNAPII, MCL-1, and c-MYC in OCI-AML-3; details: OCI-AML-3, 0.03-3 μM, 2 hours
Description: as §1

[4] = tested on: phosphorylation of RNAPII, MCL-1, and c-MYC in HL-60; details: HL-60, 0.03-3 μM, 2 hours
Description: as §1

Measured: effect on the phosphorylation of RNAPII, MCL-1, and c-MYC directly downstream of CDK9 protein

COC[C@@H](C)N[C@H]1CC[C@H](Nc2cc(-c3csc(NCC4(C#N)CCOCC4)n3)c(Cl)cn2)CC1 [Compound 1, 4-(((4-(5-chloro-2-(((1R,4r)-4-(((R)-1-methoxypropyl-2-yl)amino)cyclohexyl)amino)pyridin-4-yl)thiazol-2-yl)amino)methyl)tetrahydro-2H-pyran-4-carbonitrile]
significant inhibitory effect: all assays above

Source: patent publication US10952999B2, “Inhibitor of cyclin-dependent kinase CDK9” (GENFLEET THERAPEUTICS (SHANGHAI) INC., priority 2017, dated 2021)
